According to ChEMBL document CHEMBL2177016 (J Med Chem, 2012):
The source made the active and inactive calls. No cut-off for these calls is given here.

Legend:
Carbonic anhydrase 9 = Carbonic anhydrase 9 (Homo sapiens, UniProt Q16790)
Description: Inhibition of human recombinant CA9 catalytic domain pre-incubated for 15 mins by stopped-flow CO2 hydration method

Carbonic anhydrase 2 = molecular target: T1, Carbonic anhydrase 2 (Mycobacterium tuberculosis, UniProt P9WPJ9)
T1 sequence (P9WPJ9 whole entry): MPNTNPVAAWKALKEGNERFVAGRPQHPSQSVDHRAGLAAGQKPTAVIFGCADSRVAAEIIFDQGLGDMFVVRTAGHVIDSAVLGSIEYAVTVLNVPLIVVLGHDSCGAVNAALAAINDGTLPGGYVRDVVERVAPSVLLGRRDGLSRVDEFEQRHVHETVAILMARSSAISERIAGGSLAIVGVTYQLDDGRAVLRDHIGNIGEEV
Description: Inhibition of Mycobacterium tuberculosis recombinant carbonic anhydrase Rv3588c pre-incubated for 15 mins by stopped-flow CO2 hydration method

[1] = molecular target: T2, Beta-carbonic anhydrase 1 (Mycobacterium tuberculosis, UniProt P9WPJ7)
T2 sequence (P9WPJ7 whole entry): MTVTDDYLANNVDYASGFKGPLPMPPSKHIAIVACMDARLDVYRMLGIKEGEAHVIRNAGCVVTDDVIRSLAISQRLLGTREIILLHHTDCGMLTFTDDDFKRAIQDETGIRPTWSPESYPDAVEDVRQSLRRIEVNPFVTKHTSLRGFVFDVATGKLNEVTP
Description: Inhibition of Mycobacterium tuberculosis recombinant carbonic anhydrase Rv1284 pre-incubated for 15 mins by stopped-flow CO2 hydration method

[2] = molecular target: T3, PROBABLE TRANSMEMBRANE CARBONIC ANHYDRASE (CARBONATE DEHYDRATASE) (CARBONIC DEHYDRATASE) (Mycobacterium tuberculosis, UniProt P96878)
T3 sequence (P96878 whole entry): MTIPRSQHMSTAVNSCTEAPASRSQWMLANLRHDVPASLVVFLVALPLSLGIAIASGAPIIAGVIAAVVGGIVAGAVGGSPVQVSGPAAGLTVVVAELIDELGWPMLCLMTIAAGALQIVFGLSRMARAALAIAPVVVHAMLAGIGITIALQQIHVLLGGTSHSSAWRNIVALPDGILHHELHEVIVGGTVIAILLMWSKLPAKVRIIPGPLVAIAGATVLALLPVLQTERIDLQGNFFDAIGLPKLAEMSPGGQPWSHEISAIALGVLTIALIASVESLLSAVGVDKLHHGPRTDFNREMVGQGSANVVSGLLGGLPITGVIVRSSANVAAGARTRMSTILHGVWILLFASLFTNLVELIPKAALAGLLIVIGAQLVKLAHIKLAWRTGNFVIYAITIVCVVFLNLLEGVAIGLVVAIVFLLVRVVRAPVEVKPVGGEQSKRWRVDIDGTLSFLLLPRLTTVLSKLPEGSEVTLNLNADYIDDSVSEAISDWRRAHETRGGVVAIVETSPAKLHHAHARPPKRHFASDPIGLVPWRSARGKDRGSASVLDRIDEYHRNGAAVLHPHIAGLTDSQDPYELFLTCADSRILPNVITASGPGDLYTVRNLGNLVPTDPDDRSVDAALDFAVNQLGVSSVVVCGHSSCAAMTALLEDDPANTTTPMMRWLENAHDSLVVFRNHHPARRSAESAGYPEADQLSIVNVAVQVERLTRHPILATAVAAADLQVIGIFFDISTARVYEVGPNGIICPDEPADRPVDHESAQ
Description: Inhibition of Mycobacterium tuberculosis recombinant carbonic anhydrase Rv3273 pre-incubated for 15 mins by stopped-flow CO2 hydration method

[3] = molecular target: T4, Prostaglandin G/H synthase 2 (Ovis aries) (UniProt P79208); experiment: Inhibition of ovine COX2 at 100 uM incubated for 5 mins by colorimetric assay
T4 sequence (whole entry): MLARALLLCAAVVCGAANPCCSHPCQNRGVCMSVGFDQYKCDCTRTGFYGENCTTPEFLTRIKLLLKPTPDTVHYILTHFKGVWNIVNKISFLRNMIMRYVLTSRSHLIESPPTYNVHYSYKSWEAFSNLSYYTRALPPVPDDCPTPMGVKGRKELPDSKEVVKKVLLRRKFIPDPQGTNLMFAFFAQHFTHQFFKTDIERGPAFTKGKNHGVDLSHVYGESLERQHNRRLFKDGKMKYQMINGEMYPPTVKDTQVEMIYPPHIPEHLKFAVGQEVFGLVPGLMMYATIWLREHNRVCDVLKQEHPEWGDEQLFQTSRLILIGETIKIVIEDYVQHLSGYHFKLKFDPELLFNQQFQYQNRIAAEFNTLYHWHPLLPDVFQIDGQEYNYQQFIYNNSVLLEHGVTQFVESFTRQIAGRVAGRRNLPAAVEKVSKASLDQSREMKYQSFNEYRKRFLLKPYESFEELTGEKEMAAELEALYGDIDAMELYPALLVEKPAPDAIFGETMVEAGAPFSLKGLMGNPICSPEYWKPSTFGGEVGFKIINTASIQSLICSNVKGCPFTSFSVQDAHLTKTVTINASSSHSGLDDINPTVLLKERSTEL

Carbonic anhydrase 3 = Carbonic anhydrase 3 (Homo sapiens, UniProt P07451)
Sequence of Carbonic anhydrase 3 (P07451 whole entry): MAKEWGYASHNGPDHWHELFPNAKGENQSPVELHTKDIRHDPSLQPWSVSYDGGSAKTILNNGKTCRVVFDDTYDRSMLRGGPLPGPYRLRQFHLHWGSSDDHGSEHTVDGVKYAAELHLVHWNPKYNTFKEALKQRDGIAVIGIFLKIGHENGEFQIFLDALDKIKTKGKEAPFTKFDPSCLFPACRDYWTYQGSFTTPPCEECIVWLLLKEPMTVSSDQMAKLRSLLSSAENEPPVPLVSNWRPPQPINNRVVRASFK
Description: Inhibition of human recombinant full length CA3 pre-incubated for 15 mins by stopped-flow CO2 hydration method

## NS(=O)(=O)c1ccc(-n2ncc3c2-c2cccnc2SC3)cc1
Carbonic anhydrase 9
  Ki: 2.34 µM
Carbonic anhydrase 2
  Ki: 0.273 µM
[1]
  Ki: 0.134 µM
[2]
  Ki: 0.286 µM
[3]
  inhibition: inactive

## NS(=O)(=O)c1ccc(-n2ncc3c2-c2ccc(Cl)cc2SC3)cc1
Carbonic anhydrase 9
  Ki: 1.84 µM
Carbonic anhydrase 2
  Ki: 0.235 µM
[1]
  Ki: 0.412 µM
[2]
  Ki: 0.316 µM
[3]
  inhibition: inactive

## Cc1ccc(-c2cc(C(F)(F)F)nn2-c2ccc(S(N)(=O)=O)cc2)cc1 [CELECOXIB]
[2]
  Ki: 7.76 µM
Carbonic anhydrase 3
  Ki: 7.4 µM

## COc1ccc2c(c1)SCc1cnn(-c3ccc(S(N)(=O)=O)cc3)c1-2
Carbonic anhydrase 9
  Ki: 2.18 µM
Carbonic anhydrase 2
  Ki: 0.61 µM
[1]
  Ki: 0.87 µM
[2]
  Ki: 0.75 µM
[3]
  inhibition: inactive

## Cc1ccc2c(n1)SCc1cnn(-c3ccc(S(N)(=O)=O)cc3)c1-2
Carbonic anhydrase 2
  Ki: 0.144 µM
[1]
  Ki: 0.115 µM
[2]
  Ki: 0.241 µM
[3]
  inhibition: inactive

## NS(=O)(=O)c1ccc(-n2ncc3c2-c2ccc(C(F)(F)F)cc2SC3)cc1
Carbonic anhydrase 9
  Ki: 2.57 µM
Carbonic anhydrase 2
  Ki: 0.357 µM
[1]
  Ki: 0.613 µM
[2]
  Ki: 0.238 µM
[3]
  inhibition: inactive
